Experimental data reported in ChEMBL document CHEMBL1201862, “PubChem BioAssay data set” (2004).
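Cultured in 96-well plates, cells were exposed to test compound for 48 hours across five concentrations. The concentration for 50% growth inhibition is given as GI50.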 Calls of active or inactive are those of the source. Cut-off read from the data, not from the text of the source: active = GI50 up to about 1.1 µM and inactive = higher.

How the values were obtained:
Assay in all cases: DTP human tumour cell line panel, 48 h
A498 = tested on: A498
CAKI-1 = tested on: CAKI-1
COLO 205 = tested on: COLO 205
HL-60 = tested on: HL-60
KM12 = tested on: KM12
LXFL 529 = tested on: LXFL 529
Malme-3M = tested on: Malme-3M
NCI-H23 = tested on: NCI-H23
OVCAR-3 = tested on: OVCAR-3
RPMI-8226 = tested on: RPMI-8226
SF-268 = tested on: SF-268
SN12C = tested on: SN12C
SNB-75 = tested on: SNB-75
U-251 = tested on: U-251
UACC-62 = tested on: UACC-62
EKVX = tested on: EKVX
OVCAR-5 = tested on: OVCAR-5
SF-295 = tested on: SF-295
NCI/ADR-RES = tested on: NCI/ADR-RES
T47D = tested on: T47D

Measured: GI50

COc1cc2c(cc1OC)C(C(=O)c1cccc(OC)c1OC)C(=O)N(C)CC2 (stereo not given)
inactive: A498 > 100 µM | CAKI-1 > 100 µM | COLO 205 > 100 µM | HL-60 > 100 µM | KM12 > 100 µM | LXFL 529 > 100 µM | Malme-3M > 100 µM | NCI-H23 > 100 µM | OVCAR-3 > 100 µM | RPMI-8226 > 100 µM | SF-268 > 100 µM | SN12C > 100 µM | SNB-75 > 100 µM | U-251 > 100 µM | UACC-62 > 100 µM

O=C(c1ccccn1)c1nc(-c2ccc(Cl)c(Cl)c2)nc2ccc(Cl)cc12
inactive: A498 45.1 µM | CAKI-1 56.6 µM | EKVX 74.5 µM | HL-60 > 100 µM | KM12 > 100 µM | LXFL 529 46.6 µM | Malme-3M 32.3 µM | NCI-H23 20.3 µM | OVCAR-3 42.7 µM | OVCAR-5 > 100 µM | RPMI-8226 > 100 µM | SF-295 31.1 µM | SNB-75 12.3 µM | U-251 44.1 µM | UACC-62 39.2 µM

COc1ccc(OCC(=O)O)c2c1CCCC2=O
inactive: A498 > 100 µM | COLO 205 > 100 µM | EKVX > 100 µM | HL-60 > 100 µM | KM12 > 100 µM | LXFL 529 > 100 µM | Malme-3M > 100 µM | NCI-H23 > 100 µM | OVCAR-3 > 100 µM | OVCAR-5 > 100 µM | RPMI-8226 > 100 µM | SF-268 > 100 µM | SF-295 > 100 µM | SN12C > 100 µM | SNB-75 62.8 µM | U-251 > 100 µM | UACC-62 81.3 µM

ONc1ncnc2[nH]cnc12
inactive: CAKI-1 > 100 µM | COLO 205 > 100 µM | HL-60 14.7 µM | KM12 > 100 µM | LXFL 529 > 100 µM | Malme-3M > 100 µM | NCI-H23 > 100 µM | OVCAR-3 > 100 µM | OVCAR-5 > 100 µM | RPMI-8226 58.2 µM | SF-268 > 100 µM | SF-295 > 100 µM | SNB-75 > 100 µM | U-251 > 100 µM | UACC-62 > 100 µM

O=C(NC12CC3CC(CC(C3)C1)C2)C(=O)c1c[nH]c2ccc(Br)cc12
inactive: CAKI-1 39.3 µM | COLO 205 18.6 µM | EKVX 73.1 µM | HL-60 5.02 µM | KM12 7.08 µM | LXFL 529 15.5 µM | Malme-3M 17.9 µM | NCI-H23 33.1 µM | OVCAR-3 11.2 µM | OVCAR-5 36.9 µM | RPMI-8226 6.67 µM | SF-268 9.59 µM | SF-295 4.18 µM | SN12C 18.5 µM | SNB-75 12.6 µM | U-251 12.1 µM | UACC-62 23.5 µM

Nc1ccn([C@@H]2C[C@H](CO)[C@@H](O)[C@H]2O)c(=O)n1
inactive: A498 > 57.7 µM | CAKI-1 > 57.7 µM | COLO 205 > 57.7 µM | EKVX > 57.7 µM | HL-60 > 57.7 µM | KM12 > 57.7 µM | LXFL 529 > 57.7 µM | Malme-3M > 57.7 µM | OVCAR-3 > 57.7 µM | RPMI-8226 > 57.7 µM | SF-268 > 57.7 µM | SN12C > 57.7 µM | SNB-75 > 57.7 µM | U-251 > 57.7 µM | UACC-62 > 57.7 µM

COC(=O)/C=C/C1C2C3(CCC(C)C12C)OCCS3 (stereo not given)
inactive: A498 > 100 µM | COLO 205 > 100 µM | EKVX > 100 µM | HL-60 > 100 µM | KM12 > 100 µM | LXFL 529 > 100 µM | Malme-3M > 100 µM | NCI-H23 > 100 µM | OVCAR-3 > 100 µM | OVCAR-5 > 100 µM | SF-268 > 100 µM | SF-295 > 100 µM | SN12C > 100 µM | SNB-75 > 100 µM | U-251 > 100 µM

COc1ccc(OC)c2[s+]snc12
inactive: A498 > 100 µM | CAKI-1 > 100 µM | COLO 205 > 100 µM | EKVX > 100 µM | HL-60 33.3 µM | KM12 38.6 µM | LXFL 529 35.6 µM | Malme-3M > 100 µM | NCI-H23 75.2 µM | OVCAR-3 34.4 µM | OVCAR-5 > 100 µM | SF-268 52.6 µM | SF-295 55.7 µM | SN12C > 100 µM | SNB-75 93.5 µM | U-251 28 µM | UACC-62 26.6 µM

COc1cc2c(c(OC)c1)C1(CC(CC#N)C2)SCCS1 (stereo not given)
inactive: A498 > 100 µM | CAKI-1 > 100 µM | COLO 205 > 100 µM | HL-60 > 100 µM | KM12 > 100 µM | LXFL 529 > 100 µM | Malme-3M > 100 µM | OVCAR-3 > 100 µM | RPMI-8226 > 100 µM | SF-268 > 100 µM | SN12C > 100 µM | SNB-75 56.9 µM | U-251 > 100 µM | UACC-62 > 100 µM

CC1=C(C(=O)Nc2cc(=O)n(C)c(=O)n2C)C(c2ccco2)C(C(=O)Nc2cc(=O)n(C)c(=O)n2C)=C(C)N1
inactive: A498 > 100 µM | CAKI-1 > 100 µM | COLO 205 > 100 µM | EKVX > 100 µM | HL-60 > 100 µM | KM12 > 100 µM | LXFL 529 > 100 µM | Malme-3M > 100 µM | NCI-H23 > 100 µM | OVCAR-3 > 100 µM | OVCAR-5 > 100 µM | RPMI-8226 > 100 µM | SF-268 > 100 µM | SF-295 > 100 µM | SN12C > 100 µM | SNB-75 44.8 µM | U-251 > 100 µM

O=C1CC2CCN(C(=O)c3ccccc3)CC2CCN1 (stereo not given)
inactive: A498 > 100 µM | COLO 205 > 100 µM | EKVX > 100 µM | HL-60 > 100 µM | KM12 > 100 µM | LXFL 529 > 100 µM | Malme-3M > 100 µM | NCI-H23 > 100 µM | OVCAR-3 > 100 µM | OVCAR-5 > 100 µM | RPMI-8226 > 100 µM | SF-268 > 100 µM | SF-295 > 100 µM | SN12C > 100 µM | SNB-75 > 100 µM | U-251 > 100 µM | UACC-62 > 100 µM

CSc1nc(NC2OC(COC(C)=O)C(OC(C)=O)C(OC(C)=O)C2OC(C)=O)c(-c2csc(N)n2)c(=O)n1C (stereo not given)
inactive: A498 > 100 µM | CAKI-1 31.3 µM | COLO 205 > 100 µM | HL-60 > 100 µM | KM12 > 100 µM | LXFL 529 31.7 µM | Malme-3M 28.9 µM | NCI-H23 39.3 µM | OVCAR-3 54 µM | OVCAR-5 > 100 µM | RPMI-8226 > 100 µM | SF-268 22.5 µM | SF-295 33.6 µM | SN12C 49.5 µM | SNB-75 18 µM | U-251 34.3 µM | UACC-62 26.1 µM

NC(=O)NC1C(C(=O)O)N(Cc2ccccc2)C(=O)N1Cc1ccccc1 (stereo not given)
inactive: CAKI-1 > 100 µM | COLO 205 > 100 µM | EKVX > 100 µM | HL-60 > 100 µM | KM12 > 100 µM | LXFL 529 > 100 µM | Malme-3M > 100 µM | NCI-H23 > 100 µM | OVCAR-3 > 100 µM | OVCAR-5 > 100 µM | RPMI-8226 > 100 µM | SF-268 > 100 µM | SF-295 > 100 µM | SNB-75 > 100 µM | U-251 > 100 µM | UACC-62 > 100 µM

COc1ccc2c(c1)CCc1c-2nc2cc3c(cc2c1O)OCO3
inactive: CAKI-1 > 100 µM | COLO 205 > 100 µM | EKVX > 100 µM | HL-60 > 100 µM | KM12 > 100 µM | LXFL 529 > 100 µM | Malme-3M > 100 µM | NCI-H23 > 100 µM | OVCAR-3 > 100 µM | RPMI-8226 > 100 µM | SF-268 > 100 µM | SF-295 > 100 µM | SN12C > 100 µM | SNB-75 > 100 µM | U-251 > 100 µM | UACC-62 > 100 µM

COC(=O)CSc1nnc(-c2ccc(O)c([N+](=O)[O-])c2)[nH]1
inactive: A498 > 100 µM | CAKI-1 > 100 µM | EKVX > 100 µM | HL-60 > 100 µM | LXFL 529 > 100 µM | Malme-3M > 100 µM | NCI-H23 > 100 µM | OVCAR-3 > 100 µM | OVCAR-5 > 100 µM | RPMI-8226 > 100 µM | SF-268 > 100 µM | SF-295 > 100 µM | SN12C > 100 µM | SNB-75 > 100 µM | U-251 > 100 µM | UACC-62 > 100 µM

Fc1cccc2cc3ccc4cccc5ccc(c12)c3c45
inactive: A498 > 100 µM | CAKI-1 > 100 µM | COLO 205 > 100 µM | EKVX 2.66 µM | HL-60 > 100 µM | KM12 > 100 µM | LXFL 529 > 100 µM | Malme-3M > 100 µM | NCI-H23 1.63 µM | OVCAR-3 > 100 µM | OVCAR-5 7.4 µM | SF-268 > 100 µM | SF-295 > 100 µM | SN12C > 100 µM | SNB-75 > 100 µM | U-251 > 100 µM | UACC-62 > 100 µM

CC(=O)OCC1OC(Nc2ccc3nc(C)n(-c4cccc(C)c4)c(=O)c3c2)C(OC(C)=O)C(OC(C)=O)C1OC(C)=O (stereo not given)
inactive: A498 > 62.5 µM | CAKI-1 > 62.5 µM | COLO 205 > 62.5 µM | EKVX > 62.5 µM | HL-60 > 62.5 µM | KM12 > 62.5 µM | Malme-3M > 62.5 µM | NCI-H23 > 62.5 µM | NCI/ADR-RES > 62.5 µM | OVCAR-3 > 62.5 µM | OVCAR-5 > 62.5 µM | RPMI-8226 36.4 µM | SF-268 > 62.5 µM | SF-295 > 62.5 µM | SN12C > 62.5 µM | SNB-75 > 62.5 µM | T47D > 62.5 µM | U-251 > 62.5 µM | UACC-62 > 62.5 µM
